Results on three compounds are retold here after patent EP1574213B1, “Use of histone deacetylase inhibitors for increasing therapeutic gain in radiotherapy and chemotherapy” (Asan Laboratories Company (Cayman), Limited, priority 2004, dated 2005).

For assay [1], the system named is irradiated skin. As to the kind of experiment: Radiation-induced skin reaction after 40Gy, gross skin score and H&E histology. It counts as in vivo, Sprague Dawley (SD) rats. The note with it: for radiation-induced skin damage including acute dermatitis and desquamation, and late fibrosis, ulceration and necrosis: in words. The protocol:
Adult female Sprague Dawley (SD) rats were purchased from the animal center of the National Science Council of Taiwan, and weighed 250-300g at the time of irradiation. Each rat was caged alone and allowed chow and water. They were anesthetized with pentobarbital 50mg/kg i.p. before irradiation. The skin over gluteal area was shaved completely and radiation fields with 2-cm diameter were outlined with a marking pen just prior to irradiation. An electron beam with 6MeV energy produced by a linear accelerator was used. The dose was delivered on Day 0 at 4Gy/min up to 40Gy to the prepared area. Each group treated with a histone deacetylase inhibitor was further divided into three subgroups animals (5 each) : one subgroup treated with skin irradiation followed by vehicle, another with skin irradiation followed by a histone deacetylase inhibitor, and the third with skin irradiation only. Then vaseline (negative control), madecassol ointment (positive control), or either vehicles or the 1% phenylbutyrate cream, 1% valproic acid cream, or 0.1% trichostatin A ointment were applied topically to the irradiated skin twice daily from Day 1 to Day 90 after irradiation. The mean dosage for each treatment in the respective groups was 16mg vaseline per cm^2 skin, 16mg madecassol per cm^2 skin, 50mg phenylbutyrate per cm^2 skin, 50mg valproic acid per cm^2 skin, 5mg trichostatin A per cm^2 skin, and an equivalent amount of the vehicle base for the control groups. The gross skin reactions were evaluated in all rats. Acute skin reactions were evaluated and scored every other day until the 90th day after irradiation using the modified skin score system (Abe Y. and Urano M. Fraction size-dependent acute skin reaction of mice after multiple twice-a-day doses. International Journal of Radiation Oncology, Biology, Physics. 18(2):359-64, 1990): 0=normal, 0.5=slight epilation, 1.0=epilation in about 50% of the radiated area, 1.5=epilation in greater than 50% of the area, 2.0=complete epilation, 2.5=complete epilation with definitive edema or dry desquamation in more than 50% of the area, 3.0=moist desquamation in a small area, 3.5=moist desquamation in most of the area.
The skin score increases with more severe skin reaction. On Day 11, the skin reactions in the groups treated with madecassol (positive control) or histone deacetylase inhibitors were less marked than those in the negative or vehicle control groups. By day 21, the epilation in the negative or vehicle groups had progressed to wet desquamation in most areas whereas in the madecassol or histone deacetylase inhibitor groups, it improved, and epithelium healing had begun quickly. […]

The subject of assay [2] is EBV thymidine kinase. As to the kind of experiment: EBV thymidine kinase activity assay. The conditions noted are these: 1 nM for 48 hours; EBV-positive Daudi cells. It counts as cell-based, Epstein-Barr virus (EBV). The method, then: For EBV thimidine kinase activity assay, an equal amount of cytosol fraction was incubated with reaction buffer (50mM Tris-HCl pH 7.4, 1mg/ml BSA, 3mM creatine phosphate, 11.2U/ml creatine phosphokinase, 0.1µm [3H-8]-GCV (specific activity 13.5 Ci/mmol), 2.5mM ATP, 2.5mM MgCl2, 10mM NaF, 10mM DTT) at 37°C for 30 mins. The reaction mixtures were added on WhatmanR DE-81 ion exchange chromatography papers, which were then washed with 1.5mM NH4COOH three times to remove unphosphorylated form of [3H-8]-GCV. After air dry, these papers were incubated with liquid scintillation cocktail overnight. The phosphorylation form of [3H-8]-GCV bound on WhatmanR DE-81 ion exchange chromatography paper was measured by LS6500 scintillation counter (Beckman).
The combination of TSA, GCV and radiation produced selectively maximal death in EBV-positive cells but not in EBV-negative cells (FIG. 11B). Daudi cells (EBV+) and HL-60 (EBV-) were treated with ganciclovir (GCV) (10 µg/ml) and /or trichostatin A (TSA) (1 nM) for 48 hours, then radiated with or without 1 Gy radiation (RT). Viable cells were counted 1 week later.

The subject of assay [3] is TGF-β1, TGF-β2, and TNF-α. Nature of the assay: Cytokine mRNA in irradiated skin (RNase protection assay, northern blot). It counts as in vivo, rats. The conditions noted are these: for radiation-induced TGF-β1, TGF-β2, and TNF-α expression: northern blot, irradiated skin. The method, then: (§1) The timing of the peak appearance of TGF-β1, TGF-β2, and TNF-α expression levels induced by radiation correlated with the beginning of development of radiation-induced damage (FIG. 4). Levels of TGF-β1, TGF-β2, TGF-β3, and TNF-α mRNA were assessed using a multiple cytokine RNase protection assay kit (Riboquant; Pharmingen, San Diego, CA) that contained a template set to allow for the generation of a 32P-labeled antisense RNA probe set that hybridized with the target mRNA for TGF-β1, TGF-β2, TGF-β3, TNF-α, and internal control GAPDH. After hybridization of labeled probe to target RNA, unprotected RNA was digested by a ribonuclease (RNase), and protected RNA fragments were resolved on a 6% polyacrylamide gel and recorded by phosphorimaging (Molecular Dynamics Corp., Sunnyvale, CA). Densitometry was used to quantify the amount of each mRNA species and was normalized to the internal control GAPDH.
The means of skin scores for skin reactions from five rats in each group were calculated. The average levels of cytokine/growth factor mRNA from three skin samples in each group were normalized to the internal control GAPDH and expressed as a ratio to the average level in time-matched control groups. The Mann-Whitney test (Stata Statistical Software, College Station, TX) was used to determine statistical significance at the p < 0.05 level for differences in average skin scores and in average mRNA levels, respectively, between treated and control rats.
Total RNA was isolated from frozen skin samples using Trigent (Molecular Research Center Inc., Cincinnati, OH). Total RNA (30 µg) was electrophoresed in a denaturing formaldehyde-agarose gel, blotted onto Hybond N (Amersham, Amersham, UK), and fixed by ultraviolet (UV) irradiation. The membrane was incubated with 32P-labeled probes, as described below, in Rapid-hyb buffer (Amersham). […]

The subject of assay [4] is TNF-α. Nature of the assay: Immunohistochemistry of TNF-alpha in irradiated skin. It counts as in vivo, rats. The note with it: Day 270. An excerpt:
The decrease in late radiation-induced skin damage by topical PB was consistent with the suppression of TNF-α expression (FIG. 6).

For assay [5], the system named is TGF-β3. As to the kind of experiment: TGF-β3 mRNA in irradiated skin (RNase protection assay). It counts as in vivo, rats. The note with it: Vaseline, vehicle, or PB. The protocol: as §1
The means of skin scores for skin reactions from five rats in each group were calculated. The average levels of cytokine/growth factor mRNA from three skin samples in each group were normalized to the internal control GAPDH and expressed as a ratio to the average level in time-matched control groups. […]

Assay [6] deals with p21Cip1. As to the kind of experiment: p21Cip1 protein level in carcinoma cells in vitro. The class given is cell-based. The conditions noted are these: BNL 1MEA7R.1 and CT-26 carcinoma cells; 4 mM PB.
Assay [7] has as its system CT-26. Nature of the assay: Cutaneous tumor growth, topical treatment, CT-26. It counts as in vivo, BALB/c mice. The conditions noted are these: 4 weeks; 200 mg/mouse twice per day topically. The method, then:
(§2) The syngeneic carcinoma cells 1MEA7R.1 and CT-26 (purchased from American Type Culture Collection, Manassas, VA) were subcutaneously injected into the flank areas of female BALB/c mice. The tumor was allowed to a maximum dimension of 0.5 cm. Topical HDAC inhibitors or vehicle was applied at a dose of 200 mg/mouse to cover the whole tumor surface and surrounding skin twice per day for 4 weeks. The tumor size was calculated weekly with a caliper according to the formula ab2/2, where a and b are the larger and smaller diameters (in centimeters), respectively.
(§3) The topical PB formulation was show to have antitumor effects. […] Cutaneous tumors were allowed to grow to the largest dimension 0. 5 cm (FIG. 8D), and PB was topically applied to the tumor surface at 200 mg/mouse twice per day. By 4 weeks, the tumor sizes of 1MEA7R.1 and CT-26 carcinomas in the placebo groups were almost 6- and 1.6-fold larger than those in the PB-treated groups, respectively (FIGS. 8B-8C).

In assay [8] the test system is syngeneic carcinoma cells 1MEA7R.1 and CT-26. Nature of the assay: Direct antitumor effect on cutaneous tumor growth (both tumors, summary). The conditions noted are these: withdrawal after 5 weeks of treatment. It counts as in vivo, BALB/c mice. The protocol:
The syngeneic carcinoma cells 1MEA7R.1 and CT-26 (purchased from American Type Culture Collection, Manassas, VA) were subcutaneously injected into the flank areas of female BALB/c mice. The tumor was allowed to a maximum dimension of 0.5 cm. […] The tumor size was calculated weekly with a caliper according to the formula ab2/2, where a and b are the larger and smaller diameters (in centimeters), respectively.
as §3
The histological findings on skin specimens from 5 irradiated rats in each group are represented as follows: A, subepithelial swelling. B, dry desquamation in more than 50% of the area. C, wet desquamation in more than 50% of the area. D, atrophy of epidermis in most areas. E, atrophy of skin appendages in most areas. F, increased thickness of epithelium with more cell layers. G, increased collagen deposition, more vessel density, and increased thickness of dermis. H, chronic ulceration, necrosis, bullae formation, and more inflammatory cell infiltrate. […]

Assay [9] concerns 1MEA7R.1. As to the kind of experiment: Cutaneous tumor growth, topical treatment, 1MEA7R.1. The class given is in vivo, BALB/c mice. The note with it: 4 weeks; 200 mg/mouse twice per day topically. The method, then: as §2, §3
The test system of assay [10] is radiation-induced tumors. Nature of the assay: Late radiation-induced skin tumor formation. It counts as in vivo, rats. The note with it: 90 weeks, irradiated groups. From the text: The decrease of TGF-β expression caused by PB treatment might decrease the incidence of late radiation-induced tumorigenesis. […] The histology of radiation-induced tumors included fibroma, spindle cell sarcoma, basal cell carcinoma, and squamous cell carcinoma.

The test system of assay [11] is CNE2 nasopharyngeal carcinoma cells. Nature of the assay: Tumor radiosensitization, colony formation. It counts as cell-based. The conditions noted are these: for Radiation enhancement ratio (RER): 60 minutes prior to radiation, at 10% survival. The protocol: Radiation enhancement ratio (RER) is used to calculate the ratio of radiation doses that give the same effect. RER= (Radiation dose without drug treatment at 10% survival fraction)/(Radiation dose with drug treatment at 10% survival fraction).
Valproic acid (0.1 mM or 0.5 mM) was added in CNE2 nasopharyngeal carcinoma cells 60 minutes prior to radiation with radiation dose from 2 to 16 Gy, then washed out. After one week, colonies containing more than 50 cells were counted.

The subject of assay [12] is TGF-beta protein. As to the kind of experiment: Immunofluorescence with anti-TGF-beta1, 2 antibodies in irradiated skin. The class given is in vivo, rats. The conditions noted are these: Day 180. An excerpt: The same pathological sections in example 4 were subjected to immunofluorescence with the anti-TGF-beta1, 2 antibodies.

SMILES strings stand for the structures.

Regarding `CC(/C=C/C(=O)NO)=C\[C@@H](C)C(=O)c1ccc(N(C)C)cc1` [TSA, Trichostatin A], the “radiation-induced skin damage including acute dermatitis and desquamation, and late fibrosis, ulceration and necrosis” value in [1] is “suppressing”. Moreover, in [2], the “EBV thymidine kinase activity” value is reported as “up-regulated”. For the same compound, the “radiation-induced TGF-β1, TGF-β2, and TNF-α expression” value in assay [3] is “decreased”.
Regarding `O=C(O)CCCc1ccccc1` [PB, Phenylbutyrate], in assay [4], the TNF-α expression entry was “suppression”. Further, the “differences in TGF-β3 mRNA levels between irradiated groups” value in assay [5] was “No significant differences”. In addition, in [1] (Day 270), the “rats showing chronic ulceration, necrosis, bullae formation, and inflammatory cell infiltration” value is “zero of five”. Also, the “radiation-induced skin damage including acute dermatitis and desquamation, and late fibrosis, ulceration and necrosis” value in [1] is on record as “suppressing”. The p21Cip1 result in assay [6] is “up-regulation”. For the same compound, the “tumor size in the placebo group relative to the PB-treated group” value in assay [7] is listed as approximately 1.6 fold; in assay [9], approximately 6 fold. Moreover, the “time to reach the same size as control or placebo tumors after withdrawal” value in [8] is not above 2 weeks. Moreover, the “mRNA levels of TGF-β1, TGF-β2, and TNF-α” value in assay [3] (Day 28-35 after irradiation) is given as “returned to the non-irradiated control levels”. For the same compound, in assay [10], the cumulative tumor incident was 0%. The plating efficiency entry in [11] (versus control) is listed as “the same”. Further, in assay [12], the “expression of TGF-beta” value is reported as “suppressed effectively”.
For the compound `CCCC(CCC)C(=O)O` [Valproic acid], in assay [1], the “radiation-induced skin damage including acute dermatitis and desquamation, and late fibrosis, ulceration and necrosis” value was “suppressing”. Also, the “radiation-induced TGF-β1, TGF-β2, and TNF-α expression” value in [3] is “decreased”. For the same compound, the results for the “Radiation enhancement ratio (RER)” value in assay [11] (0.1 mM) and in assay [11] (0.5 mM) were 1.2 and 1.7, respectively.
